Data as given in patent publication US20250109165A1, “CYCLOPHILIN INHIBITORS AND USES THEREOF” (The Broad Institute, Inc., priority 2022, published 2025).
Values joined by “and” are separate entries in the source; they are usually repeats but may differ in a detail not shown here. Identical values can stand only once.

Legend:
CypA = molecular target: T1, CypA (Homo sapiens, UniProt P62937); assay: Chymotrypsin coupled prolyl-isomerase assay; assay type: biochemical; conditions: wild-type CypA
T1 construct: PPIA (UniProtKB Entry P62937: res 1-165); made in house; host or cells: E. coli BL21(DE3)
T1 sequence (P62937 whole entry): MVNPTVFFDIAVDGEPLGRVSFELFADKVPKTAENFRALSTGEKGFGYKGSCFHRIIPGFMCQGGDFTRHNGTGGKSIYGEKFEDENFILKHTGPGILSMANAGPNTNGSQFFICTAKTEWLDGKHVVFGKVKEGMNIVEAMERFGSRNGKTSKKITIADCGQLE
Description: (§1) IC50 values were calculated to be the value at which 50% inhibition was achieved on each compound's non-linear regression fitted curve.

CypD [1] = assay: Chymotrypsin coupled prolyl-isomerase assay; assay type: biochemical, human; conditions: CypD versus wild-type CypA
Description: as §1

CypD S123E = molecular target: T2, CypD S123E (Homo sapiens, UniProt P30405, S123E); assay: Chymotrypsin coupled prolyl-isomerase assay; assay type: biochemical; conditions: CypD S123E gatekeeper mutant; read-out: IC50^CypDS123E
T2 construct: made in house; host or cells: E. coli BL21(DE3)
T2 sequence (P30405 45-207 S123E): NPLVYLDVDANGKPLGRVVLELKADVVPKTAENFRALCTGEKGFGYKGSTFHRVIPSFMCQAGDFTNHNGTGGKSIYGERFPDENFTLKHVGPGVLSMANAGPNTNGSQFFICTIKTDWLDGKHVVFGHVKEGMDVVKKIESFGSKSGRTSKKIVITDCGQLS
Description: as §1

CypB = molecular target: T3, CypB (Homo sapiens, UniProt P23284); assay: Chymotrypsin coupled prolyl-isomerase assay; assay type: biochemical; conditions: wild-type CypB
T3 construct: PPIB (UniProtKB Entry P23284: res 34-216); His6 tag with TEV site (seen as […]- and […]- forms) (N); made in house; host or cells: E. coli BL21(DE3)
T3 sequence (P23284 34-216): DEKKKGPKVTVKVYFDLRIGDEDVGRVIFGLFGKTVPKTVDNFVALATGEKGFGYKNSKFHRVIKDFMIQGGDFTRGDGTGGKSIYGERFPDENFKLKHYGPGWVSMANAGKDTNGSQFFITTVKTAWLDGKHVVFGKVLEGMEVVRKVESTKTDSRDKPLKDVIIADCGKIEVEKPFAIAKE
Description: as §1

CypB E121S = molecular target: T4, CypB E121S (Homo sapiens, UniProt P23284, E121S); assay: Chymotrypsin coupled prolyl-isomerase assay; assay type: biochemical; conditions: CypB E121S gatekeeper mutant; read-out: IC50^CypBE121S
T4 construct: Lane 14-SNA-CypB E121S (34-216); His6 tag (N, cleaved yes); made in house; host or cells: E. coli BL21(DE3)
T4 sequence (P23284 34-216 E121S): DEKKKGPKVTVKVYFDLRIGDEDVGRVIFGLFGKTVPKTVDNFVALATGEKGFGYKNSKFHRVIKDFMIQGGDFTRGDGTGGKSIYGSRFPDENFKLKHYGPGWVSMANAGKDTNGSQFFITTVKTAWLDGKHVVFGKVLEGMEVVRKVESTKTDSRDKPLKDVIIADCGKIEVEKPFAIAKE
Description: as §1

CypD K118A = molecular target: T5, CypD K118A (Homo sapiens, UniProt P30405, K118A); assay: Chymotrypsin coupled prolyl-isomerase assay; assay type: biochemical; conditions: CypD K118A mutant; read-out: IC50^CypDK118A
T5 construct: made in house; host or cells: E. coli BL21(DE3)
T5 sequence (P30405 45-207 K118A): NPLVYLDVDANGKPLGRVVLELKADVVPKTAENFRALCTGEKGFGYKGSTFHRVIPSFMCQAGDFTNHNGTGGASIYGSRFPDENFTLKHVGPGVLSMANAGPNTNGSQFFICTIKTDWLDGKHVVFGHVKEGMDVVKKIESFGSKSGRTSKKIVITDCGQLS
Description: as §1

CypD K118E = molecular target: T6, CypD K118E (Homo sapiens, UniProt P30405, K118E); assay: Chymotrypsin coupled prolyl-isomerase assay; assay type: biochemical; conditions: CypD K118E mutant; read-out: IC50^CypDK118E
T6 construct: made in house; host or cells: E. coli BL21(DE3)
T6 sequence (P30405 45-207 K118E): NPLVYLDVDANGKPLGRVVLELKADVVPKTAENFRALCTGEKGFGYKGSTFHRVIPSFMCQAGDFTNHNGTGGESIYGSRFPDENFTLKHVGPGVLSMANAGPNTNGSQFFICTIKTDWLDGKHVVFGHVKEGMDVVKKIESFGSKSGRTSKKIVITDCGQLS
Description: as §1

CypD [2] = molecular target: T7, CypD (Homo sapiens, UniProt P30405); assay: Chymotrypsin coupled prolyl-isomerase assay; assay type: biochemical; conditions: wild-type CypD
T7 construct: PPIF (UniProtKB Entry P30405: res 45-207); made in house; host or cells: E. coli BL21(DE3)
T7 sequence (P30405 45-207): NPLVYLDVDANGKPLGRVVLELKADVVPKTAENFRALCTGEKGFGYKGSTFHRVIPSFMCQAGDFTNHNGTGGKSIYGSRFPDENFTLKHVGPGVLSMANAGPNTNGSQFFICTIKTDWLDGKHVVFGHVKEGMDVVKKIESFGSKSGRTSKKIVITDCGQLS
Description: as §1

CypA E81S/K82R = molecular target: T8, CypA E81S/K82R (Homo sapiens, UniProt P62937, E81S/K82R); assay: Chymotrypsin coupled prolyl-isomerase assay; assay type: biochemical; conditions: CypA E81S/K82R gatekeeper mutant; read-out: IC50^CypAE81S/K82R
T8 construct: Lane 12-SNA-CypA E81S/K82R (1-165); His6 tag (N, cleaved yes); made in house; host or cells: E. coli BL21(DE3)
T8 sequence (P62937 whole entry E81S/K82R): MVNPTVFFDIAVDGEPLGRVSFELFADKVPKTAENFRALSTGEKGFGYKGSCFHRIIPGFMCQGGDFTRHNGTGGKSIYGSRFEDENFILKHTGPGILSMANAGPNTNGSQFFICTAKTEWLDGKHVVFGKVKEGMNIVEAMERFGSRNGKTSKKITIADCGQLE
Description: as §1

cyclophilins = assay: Prolyl-isomerase inhibition screen on cyclophilins and cyclophilin mutants; assay type: biochemical, human; conditions: for potency on cyclophilin mutants compared to wild-type (in words): mutants as named at the place
Description: as §1

CypE K217A [3] = molecular target: T9, CypE K217A (Homo sapiens, UniProt Q9UNP9, K217A); assay: Chymotrypsin coupled prolyl-isomerase assay; assay type: biochemical
T9 construct: Lane 5-GS-CypE K217A (131-301); His6 tag (N, cleaved yes); made in house; host or cells: E. coli BL21(DE3)
T9 sequence (Q9UNP9 131-301 K217A): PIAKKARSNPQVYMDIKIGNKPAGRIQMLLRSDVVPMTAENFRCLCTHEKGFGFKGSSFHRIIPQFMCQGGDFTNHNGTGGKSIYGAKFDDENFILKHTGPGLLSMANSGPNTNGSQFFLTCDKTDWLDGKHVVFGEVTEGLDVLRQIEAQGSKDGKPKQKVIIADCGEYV
Description: as §1

CypE [4] = molecular target: T10, CypE (Homo sapiens, UniProt Q9UNP9); assay: Chymotrypsin coupled prolyl-isomerase assay; assay type: biochemical
T10 construct: PPIE (UniProtKB Entry Q9UNP9: res 131-301); host or cells: E. coli BL21(DE3)
T10 sequence (Q9UNP9 131-301): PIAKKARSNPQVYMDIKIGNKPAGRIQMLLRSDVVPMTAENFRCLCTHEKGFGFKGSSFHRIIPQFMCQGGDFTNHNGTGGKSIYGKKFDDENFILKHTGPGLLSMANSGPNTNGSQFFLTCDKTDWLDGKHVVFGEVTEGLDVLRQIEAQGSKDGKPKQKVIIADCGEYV
Description: as §1

CypE K217A [5] = molecular target: T9, CypE K217A; assay: Competition anisotropy (fluorescence polarization) binding assay with A26-Fl
Description: (§2) Competition anisotropy binding assay with A26-Fl: Adapted from previous work^54, into a flat-bottom black untreated 96 well plate (Corning), cyclophilin in assay buffer (25 mM HEPES pH 8.0, 100 mM NaCl, 0.01% Triton X-100) at a predetermined concentration from FIG. 27 was incubated with 0.5 nM A26-Fl for 10 minutes at room temperature. Competitor macrocycle was then added to each well and incubated for 24 hours. Final assay volume was 100 μL with 0.25% DMSO. Fluorescence anisotropy was then measured using a Tecan Spark® plate reader using 492 nm/523 nm excitation/emission settings. Raw fluorescence polarization data was normalized to protein+fluorescent probe and buffer+fluorescent probe and Ki values were calculated using one site-competitive binding equation with Prism 9, importing Kd values from A26-Fl (FIGS. 12A-12C).

CypE [6] = molecular target: T10, CypE; assay: as above
Description: as §2

CypE [7] = molecular target: T10, CypE; assay: Assessment of covalent modification by mass spectrometry; conditions: after treatment with NaCNBH3
Description: Assessment of covalent modification of CypE and other cyclophilin proteins: Into PCR strip, CypE or other cyclophilin in assay buffer (25 mM HEPES pH 8.0, 100 mM NaCl, 0.01% Triton X-100) was incubated with compound for 1 hour at room temperature. Final concentrations were 20 μM CypE, 100 μM compound, 0.5% DMSO, at a final volume of 20 μL. For analysis of lysine-iminoboronate modification, samples were directly submitted to Harvard's Center for Mass Spectroscopy for LC-MS analysis. For amine-lysine modification, samples were treated with 5 μL of 125 mM sodium cyanoborohydride dissolved in 25 mM Ammonium bicarbonate solution (pH 8.0) and incubated for 4 hours at room temperature. For all other wild-type cyclophilins, protein was treated for 4 hours with C3A, followed by 16 hour treatment with NaCNBH3. Final [NaCNBH3]=25 mM. Samples were then submitted for LC-MS as described above.

| Structure (SMILES) | IC50 (CypA) [nM] | selectivity for CypD over CypA (CypD [1]) [fold] | IC50 (CypD S123E) [nM] | IC50 (CypB) [nM] | IC50 (CypB E121S) [nM] | IC50 (CypD K118A) [nM] | IC50 (CypD K118E) [nM] | IC50 (CypD [2]) [nM] | IC50 (CypA E81S/K82R) [nM] | cyclophilin selectivity profile (in words) (cyclophilins) | potency on cyclophilin mutants compared to wild-type (in words) (cyclophilins) | other results |
| --- | --- | --- | --- | --- | --- | --- | --- | --- | --- | --- | --- | --- |
| NCCOCCNC(=O)[C@@H]1CCNC(=O)/C=C/C(=O)N2CCC[C@](Cc3ccccc3)(C2)C(=O)N[C@@H](Cc2ccc(-c3ccc(CC(C(=O)O)C(=O)O)cc3)cc2)C(=O)NCc2ccccc2CC(=O)N1 [Compound B52] | 1100 | 100 | 240 | 210 | 8 | 73 | 300 | 10 | 27 | high potency and selectivity for CypD | little to no ablation of potency | – |
| NCCOCCNC(=O)[C@@H]1CCNC(=O)/C=C/C(=O)N2CCC[C@](Cc3ccccc3)(C2)C(=O)N[C@@H](Cc2ccc(-c3ccc(C(CC(=O)O)CC(=O)O)cc3)cc2)C(=O)NCc2ccccc2CC(=O)N1 [Compound B53] | 3400 | 100 | 800 | 1100 | 50 | 900 | 4000 | 57 | 180 | high potency and selectivity for CypD | little to no ablation of potency | – |
| NC(=O)[C@@H]1CCNC(=O)/C=C/C(=O)N2CCC[C@](Cc3ccccc3)(C2)C(=O)N[C@@H](Cc2ccc(-c3ccc(C=O)c(B(O)O)c3)cc2)C(=O)NCc2ccccc2CC(=O)N1 [Compound C3A] | – | – | – | – | – | – | – | – | – | – | – | inhibition of CypE K217A compared to wild-type (in words) (CypE K217A [3]): Loss of C3A inhibition potency; less potent at inhibiting K217A prolyl isomerase activity compared to wild-type CypE (CypE K217A [3]): 150 fold; IC50 (CypE K217A [3]; CypE K217A mutant, read-out: IC^CypEK217A50): 2000 nM; CypE potency and selectivity in prolyl isomerase assay (in words) (CypE [4]): good selectivity and potency for CypE; IC50 more potent for CypE than for the other ten cyclophilins screened (CypE [4]): 30-750 fold; higher CypE inhibition potency of C3A over C5A (CypE [4]): 75 fold; selectivity for CypE over CypA (CypE [4]): > 100 fold; IC50 (CypE [4]; wild-type CypE, read-out: IC50 against CypE prolyl isomerase activity): 13 nM; less potent at competing A26-Fl off of CypE K217A compared to wild-type CypE (CypE K217A [5]): 40 fold; Ki (CypE K217A [5]; 0.5 nM A26-Fl, CypE K217A, read-out: K^CypEK217Ai): 3100 nM; binding to CypE K217A compared to wild-type (in words) (CypE K217A [5]; FP competition with 0.5 nM A26-Fl): significantly attenuated binding; Ki (CypE [6]; 0.5 nM A26-Fl, wild-type CypE, read-out: Ki, inhibition of A26-Fl binding to CypE): 72 nM; more potency for CypE than for other tested cyclophilins (CypE [6]; FP competition with A26-Fl, lysine-containing cyclophilins): > 10 fold; CypE binding in FP competition (in words) (CypE [6]; compared to C3A): selectivity for CypE; mass shift of covalent adduct with CypE (CypE [7]): 806 Da and 779 Da and 807 Da |
